# Patent US12239646B2, “Cancer diagnostic and treatment” (DANA-FARBER CANCER INSTITUTE, INC., priority 2017, dated 2025)
# Entries after “also recorded” stand apart in the source; their conditions may differ. Like-named read-outs stand apart in the source and are kept apart here.
# Tests used:
# [1] = test system: Fusobacterium-positive colorectal tumors; test: Recurrence/metastasis of patient colorectal adenocarcinoma tumors by Fusobacterium status and 5-FU treatment; details: 91 patient tumors with recurrence data; 43 patients treated with 5-FU or a 5-FU prodrug; p<0.05
# Description: FIG. 20 illustrates a comparison between tumors treated with 5-FU or a 5-FU prodrug (right panel) and tumors with no treatment (left panel). A total of 91 patient colorectal adenocarcinoma tumors with recurrence data were analyzed by Fusobacterium culture and bacterial 16s rRNA sequencing.
# (§1) A method for determining the threshold to identify inhibitor hits was established and carried out (FIG. 16). […] Validation of inhibitor hits and related compounds was carried out and dose response was determined for 5-FU, carmofur, and tegafur (FIG. 18). Validation of inhibitor hits was also carried out with additional patient CRC isolates of Fusobacterium (FIG. 19). […] Applicants also investigated whether the presence of Fusobacterium in colorectal tumors can explain patient response to 5-FU-based therapies. Data of 91 patient colorectal adenocarcinoma tumors with recurrence were obtained by Fusobacterium culture and bacterial 16s rRNA sequencing analysis.
# [2] = during chemotherapy for adenocarcinoma of the small bowel; cited from earlier work
# Fusobacterium nucleatum = test: Pilot compound screen for inhibition of Fusobacterium growth (BacTiter Glow luminescence); type: cell-based; details: 32 μM, in duplicate, 48 hours anaerobic; hit cut-off 3 SD from mean of neutral controls
# Description: FIG. 16 depicts determining threshold to identify inhibitor hits. Neutral Control=untreated F. nucleatum. Inhibitor Control=F. nucleatum treated with metronidazole. 3 SD from mean of neutral controls=−86% inhibition hit cut-off.
# FIG. 17 depicts identifying compounds that inhibit Fusobacterium growth. […] 3 SD from mean of neutral controls=−86% inhibition hit cut-off. 34 inhibitory compounds identified.
# A pilot screen containing 1,846 compounds (in duplicate), at [32 μM] was carried out. Approximately 1-2×10^6 Fusobacterium nucleatum cells/ml was seeded and incubated anaerobically for 48 hours. The read out was by the addition of BacTiter Glow and luminescence read out.
# as §1
# [3] = test system: patient colorectal cancer isolates of Fusobacterium nucleatum and Fusobacterium necrophorum; test: Validation with additional patient CRC isolates of Fusobacterium; type: cell-based; details: compared with plasma levels of treated patients (Takimoto et al. 1999)
# Description: FIG. 19 depicts validation of with additional patient CRC isolates of Fusobacterium. […] (Takimoto et al., Clinical cancer research: an official journal of the American Association for Cancer Research 5, 1347-1352 (1999)).
# as §1
# [4] = test system: COCA36F3 F. nucleatum (colorectal cancer isolate); test: Validation of inhibitor hits, dose response curves; type: cell-based, Fusobacterium nucleatum; details: 8-point, 2-fold dilutions, range 30-0.23 μM
# Description: FIG. 18 depicts validation of inhibitor hits (and related compounds). […] Validation/dose plates: 8-point, 2-fold dilutions, range 30-0.23 μM. Dose Response Curves [0.32-30 μM]: COCA36F3 F. nucleatum (colorectal cancer isolate).
# as §1
# [5] = test system: ETBF induced murine colonic tumors; details: DeStefano Shields et al. 2016; cited from earlier work
# [6] = test system: F. nucleatum strains isolated from COCA36 primary tumor and derived xenografts; test: Antibiotic sensitivity testing (E-test) of clinical F. nucleatum isolates; type: cell-based, Fusobacterium nucleatum; details: for MIC: Fusobacterium nucleatum
# Description: FIG. 14: Antibiotic sensitivity testing (E-test) of clinical F. nucleatum isolates. E-test on F. nucleatum strains isolated from COCA36 primary tumor and derived xenografts. All E-tests were carried out in triplicate on both FAA agar. The antibiotics tested were metronidazole (MZ), cefoxitin (FX) and imipenem (IP). All F. nucleatum strains tested were sensitive to cefoxitin and metronidazole in vitro: test range was 0.016 to 256 ug/ml. […] The F. nucleatum strains tested were resistant/hetero-resistant to imipenem in vitro.
# A 1 McFarland solution, in TSB, was prepared from Fusobacterium strains grown for 24-48 hours on FAA under anaerobic conditions. Using a sterile cotton swab, each Fusobacterium strain were inoculated onto antibiotic free blood agar (FAA) and E-test strip (bioMérieux) for Metronidazole (MZ), Clindamycin (CM), Cefoxitin (FX) and Imipenem (IP) were incubated for up to 72 hours and sensitivity checked after 48 hours. Each sensitivity assay was conducted in triplicate. An FAA blood plate inoculated with each Fusobacterium strain, but without the E-test strip, was used as a growth control.
# Fusobacterium species = details: cited from earlier work; for general susceptibility of the species: background statement on Fusobacterium
# [7] = test system: Fusobacterium-positive PDX tumors (COCA36); test: In vivo metronidazole trial, tumor volume of Fusobacterium-positive PDX; set-up: species or system nude mice (Nu/Nu); details: 100 mg/kg/day oral gavage, approximately 3 weeks, vs vehicle; p=0.0005
# Description: Animals bearing tumors (with volumes <250 mm^3) were randomized into statistically identical cohorts and treated with 100 mg/kg/day of metronidazole (Sigma Aldrich, USA), (suspension in 0.5% methylcellulose) or with the vehicle alone (0.5% methylcellulose) by oral gavage, daily, for approximately 3 weeks.
# (§2) Nu/nu mice were raised in the specific-pathogen-free (SPF) conditions with autoclaved food and water. For both patient and HT-29 cell derived xenografts, tumor size was measured by caliper every Monday, Wednesday and Friday each week. Tumor volume was calculated using the formula: Volume=0.5×L×W^2 and growth rate was measured by calculating the percentage increase in volume. Tumor measurements were carried out in a blinded approach. Mouse body weight was recorded every 3 to 7 days. Mice were euthanized when the tumor diameter reached 2 cm or following the 3 weeks of drug treatment. Tissues were cryopreserved in Bambanker cell freezing media (Wako Chemicals USA) or snap frozen in liquid nitrogen and stored at −80° C. PDX experiments were performed with 22 (untreated group) and 24 (treated group) mice at timepoint zero, over three independent trials. HT-29 derived xenograft experiments were performed with 20 (untreated group) and 19 (treated group) mice at timepoint zero, over two independent trials. […]
# [8] = test system: PDX tumors (COCA36), tumor cell proliferation; test: In vivo BrdU incorporation assay (IHC) of PDX tumors; set-up: species or system nude mice (Nu/Nu); details: n=6 per arm, three weeks treatment vs vehicle, p=0.0015
# Description: Bromodeoxyuridine (BrdUrd) solution (10 mg/mL, 0.2 mL/mouse) was administered via intraperitoneal injection 16 hours after the last dose of metronidazole or vehicle. After 2 additional hours, mice were sacrificed and tumors were fixed in 10% formalin for immunohistochemistry (IHC) analysis. A total of 6 animals per arm, that were treated with metronidazole or the vehicle for three weeks were randomly selected, over two independent trials, for BrdU incorporation analysis. IHC was performed on 4-μm sections of formalin-fixed paraffin-embedded samples. Tissue sections were deparaffinized and rehydrated, and antigen retrieval was performed in 10 mmol/L citrate buffer (pH 6.0) in a 750 W microwave oven at […] for 30 minutes for BrdU staining, BrdU primary antibody (BD Biosciences, #347580) was added at a dilution of 1:100 and incubated for 1 hour at room temperature. Sections were further processed with horseradish peroxidase-conjugated secondary antibody. The reaction was detected by 3,3-diaminobenzidine and hematoxylin staining. Images were obtained with an Olympus CX41 microscope and QCapture software (QImaging).
# [9] = test system: Fusobacterium-free xenografts derived from HT-29 colon adenocarcinoma cells; test: In vivo metronidazole trial, Fusobacterium-free HT-29 cell line xenograft; set-up: species or system nude mice (Nu/Nu); details: 100 mg/kg/day oral gavage, approximately 3 weeks, vs vehicle; p>0.05 at all timepoints
# Description: For HT-29 cell line xenograft experiments, approximately 1×10^6 HT29 cells were suspended in PBS, mixed 1:1 with Matrigel (BD Biosciences), and injected subcutaneously into the flanks of nude mice (Nu/Nu; Taconic) in a final volume of 100 μL. Following 10-14 days post implantation, mice were randomized into statistically identical cohorts and treated with 100 mg/kg/day of metronidazole (suspension in 0.5% methylcellulose) or with vehicle alone by oral gavage daily for approximately 3 weeks.
# as §2, with “trials.” for “trials. HT-29 derived xenograft experiments were performed with 20 (untreated group) and 19 (treated group) mice at timepoint zero, over two independent trials.”
# Fusobacterium = test: Fusobacterium-targeted qPCR on PDX tissue after treatment; type: in vivo, Fusobacterium species in PDX (COCA36) in Nu/Nu mice; details: PDX COCA36, metronidazole vs vehicle; p=0.002
# Description: A custom TaqMan primer/probe set was used to amplify Fusobacterium species DNA (Integrated DNA technologies, CA) as previously described (28). The cycle threshold (Ct) values for Fusobacterium species were normalized to the amounts of human genomic DNA in each reaction by using a primer and probe set for the prostaglandin transporter (PGT) reference gene, and the fold difference (2^−ΔCt) in Fusobacterium load in tumor tissue was calculated as described before (8). Each reaction contained 100 ng of genomic DNA and was assayed in triplicate in 20 μL reactions containing 1× final concentration TaqMan Universal Master Mix (Applied Biosystems) and each TaqMan Gene Expression Assay (Applied Biosystems), in a 96-well optical PCR plate. Amplification and detection of DNA was performed with the ABI 7300 Real-Time PCR System (Applied Biosystems) using the following reaction conditions: 10 min at 95° C. and 42 cycles of 15 s at 95° C. and 1 min at 60° C. Cycle thresholding (Ct) was calculated using the automated settings (Applied Biosystems). The primer and probe sequences for each TaqMan Gene Expression Assay were as follows (SEQ ID. 1-6): Fusobacterium species forward primer, 5′-[…]-3′; Fusobacterium species reverse primer, 5′-[…]-3′; Fusobacterium species FAM probe, 5′-[…]-3′. […]
# [10] = E-test on FAA agar, triplicate, test range 0.016 to 256 ug/ml, no bacterial growth at 0.016 ug/ml, read-out: MIC
compound,measurement,setting,value
"O=c1[nH]cc(F)c(=O)[nH]1 [5-FU, 5-fluorouracil]",recurrence/metastasis of Fusobacterium-positive colorectal tumors,[1],less likely to develop recurrence/metastasis
same,cardiotoxicity,[2],associated with cardiotoxicity
same,inhibition of F. nucleatum growth in pilot screen,Fusobacterium nucleatum,significantly inhibit F. nucleatum growth; also recorded: potent inhibitor of Fusobacterium growth
same,"inhibition of Fusobacterium growth, patient CRC isolates",[3],inhibits Fusobacterium growth at levels comparable to achievable doses in plasma of treated patients; also recorded: potent inhibitors of Fusobacterium growth; also recorded: within a range comparable to patient plasma levels when receiving 5-fluorouracil infusion
same,"inhibition of Fusobacterium growth, patient CRC isolates",[3]; listed as 5-Fluorouracil,inhibits Fusobacterium growth at levels comparable to achievable doses in plasma of treated patients
CCCCCCNC(=O)n1cc(F)c(=O)[nH]c1=O [carmofur],"inhibition of Fusobacterium growth, dose response validation",[4],even more potent in killing Fusobacterium than the active drug 5-FU
same,"inhibition of Fusobacterium growth, dose response validation",[4]; listed as Carmofur,potent inhibitor of Fusobacterium growth
CO[C@@]1(NC(=O)Cc2cccs2)C(=O)N2C(C(=O)O)=C(COC(N)=O)CS[C@@H]21 [cefoxitin],tumorigenesis in ETBF induced murine colonic tumors,[5],reduction in tumorigenesis
same,in vitro antibiotic sensitivity (sensitive / resistant),"[6]; E-test on FAA agar, triplicate",sensitive
same,MIC,[6]; [10],< 0.016 µg/mL
O=C(N[C@H](CO)[C@H](O)c1ccc([N+](=O)[O-])cc1)C(Cl)Cl [chloramphenicol],general susceptibility of the species,Fusobacterium species,susceptible
CC[C@H]1OC(=O)[C@H](C)[C@@H](O[C@H]2C[C@@](C)(OC)[C@@H](O)[C@H](C)O2)[C@H](C)[C@@H](O[C@@H]2O[C@H](C)C[C@H](N(C)C)[C@H]2O)[C@](C)(O)C[C@@H](C)C(=O)[C@H](C)[C@@H](O)[C@]1(C)O [erythromycin],general susceptibility of the species,Fusobacterium species,resistant
Cc1ncc([N+](=O)[O-])n1CCO [metronidazole],"tumor growth (percentage tumor volume increase), Fusobacterium-positive PDX",[7],reduces tumor growth rate; also recorded: statistically significant decrease in tumor growth
same,tumor cell proliferation (BrdU incorporation),[8],reduces tumor growth rate and cancer cell proliferation; also recorded: significant reduction in tumor cell proliferation; also recorded: decreased cancer cell proliferation
same,"tumor growth (percentage tumor volume increase), Fusobacterium-free HT-29 xenograft",[9],no significant decrease in tumor growth; also recorded: not statistically significant
same,Fusobacterium load in the tumor tissue,Fusobacterium,significant decrease in Fusobacterium load; also recorded: decreases Fusobacterium load
same,inhibition of F. nucleatum growth in pilot screen,Fusobacterium nucleatum,significantly inhibit F. nucleatum growth
same,in vitro antibiotic sensitivity (sensitive / resistant),"[6]; E-test on FAA agar, triplicate",sensitive
same,MIC,[6]; [10],< 0.016 µg/mL
same,MIC,"[6]; F. nucleatum isolates from the PDX, read-out: minimum inhibitory concentration",< 0.016 µg/mL
same,reported sensitivity of Fusobacteria,Fusobacterium species; Lofmark et al. 2010,highly sensitive
penicillin,general susceptibility of the species,Fusobacterium species,susceptible
